Data set [1] addresses T1, human cloned 5-HT2B receptors (Homo sapiens, UniProt P41595).
T1 construct: expressed in transfected cells; host or cells: CHO-K1 cells
The data set is described as follows: Human cloned 5-HT2B cell-based functional assay (Fluo-4, CHO.K1 cells). The conditions noted are these: inhibition of 5-HT response, CHO.K1 cells expressing cloned 5-HT2B, Fluo-4 AM. On the procedure:
The following describes an in vitro functional assay using human cloned 5-HT2B receptors to determine the ability of compounds to block the receptor. CHO.K1 cells expressing cloned 5-HT2B receptor were maintained In Ultra-CHO medium containing 400 μg/ml of G418, 100 U/ml penicillin, 100 μg/ml streptomycin, 2.5 μg/ml fungizone, in 95/5% O2/CO2 at 37° C. Ultra-CHO medium additionally supplemented with 1% foetal bovine serum was used when seeding the cells and removed after 5 hours. Cells were plated in Costar 96 well white, clear-bottomed plate at a density of 50,000 cells per well and incubated for at least 24 hours in 95/5% O2/CO2 at 37° C. before running the assay. Media was removed from the wells and 200 μl of 4 μM Fluo-4 AM added, this was incubated in a Wallace Victor 2V workstation at 37° C. for 30 minutes. The Fluo-4 AM was then removed from the wells, which were then washed twice with 200 μl of buffer (HBSS without calcium/magnesium/phenol red, 20 mM HEPES, 1 mM Ca^2+, 1 mM Mg^2+, 2.5 mM probenecid, pH to 7.4), 180 μl of buffer or test compound was added to the well and incubated for 30 minutes. The Victor 2V injectors were used to inject 20 μl of 5-HT after obtaining 10 0.1-second baseline readings at 535 nm, followed by 150 readings. All test compounds were aliquoted in 100% DMSO at 10 mM and diluted to 1 mM in 50% DMSO, subsequent dilutions were made using buffer. Buffer was also used to dilute the 5-HT. Data were analysed using Microsoft Excel and GraphPad Prism, with the latter used to produce sigmoidal dose-response curves for each compound. The compound concentration that inhibited the 5-HT response by 50% was taken (IC50-M), and the results are shown in Table 3, as pIC50, being the negative log (to the base 10) of the measured IC50 values.

Data set [2] concerns the target T2, cloned human 5-HT2A receptor (Homo sapiens, UniProt P28223).
T2 construct: purchased Euroscreen; host or cells: CHO-K1 cells
The data set is described as follows: Human 5-HT2A receptor binding assay ([3H]ketanserin, CHO-K1 membranes). The conditions noted are these: displacement of [3H]ketanserin (1 nM), read-out: 5-HT2A pKi (converted). The procedure:
(§1) The binding affinity of ligands for human 5-HT2A and 5-HT2C receptors was determined using the following assay.
Membrane preparations from CHO-K1 cells expressing the cloned human 5-HT2A receptor were obtained (Euroscreen). The membranes were thawed rapidly and diluted in assay buffer containing Tris-HCl (50 mM, pH 7.7). The membranes were resuspended by homogenisation, prior to adding 15 μg of membranes to assay wells containing [3H] ketanserin (1 nM), assay buffer (50 mM Tris at pH 7.4) containing pargyline (10 μM), and test compounds (1×10^−10 to 1×10^−4M). Non specific binding was determined in the presence of 100 μM mianserin. After 15 minutes incubation at 37° C., the assay mixture was filtered through a combination of GF-C and GF-B filters, pre-soaked in 0.05% Brij, using a Brandel cell harvester, and were washed three times using ice cold Tris-HCl buffer (50 mM). Radioactivity retained on the filters was determined by liquid scintillation counting. For each test compound, the concentration that inhibited binding of [^3H]ketanserin by 50% was determined using curve fitting software (Prism). Kd values (concentration of ketanserin required to occupy 50% of the receptor binding sites at equlibrium) determined from saturation binding studies were then used to calculate inhibition dissociation constants (Ki) using the following equation: […]
On the technique in general: Displacement assays read how much labelled ligand stays bound in the presence of the test substance.

In data set [3] the target is T3, cloned human 5-HT2C receptor (Homo sapiens, UniProt P28335).
T3 construct: purchased Euroscreen; host or cells: CHO-K1 cells
T3 sequence (P28335 33-458): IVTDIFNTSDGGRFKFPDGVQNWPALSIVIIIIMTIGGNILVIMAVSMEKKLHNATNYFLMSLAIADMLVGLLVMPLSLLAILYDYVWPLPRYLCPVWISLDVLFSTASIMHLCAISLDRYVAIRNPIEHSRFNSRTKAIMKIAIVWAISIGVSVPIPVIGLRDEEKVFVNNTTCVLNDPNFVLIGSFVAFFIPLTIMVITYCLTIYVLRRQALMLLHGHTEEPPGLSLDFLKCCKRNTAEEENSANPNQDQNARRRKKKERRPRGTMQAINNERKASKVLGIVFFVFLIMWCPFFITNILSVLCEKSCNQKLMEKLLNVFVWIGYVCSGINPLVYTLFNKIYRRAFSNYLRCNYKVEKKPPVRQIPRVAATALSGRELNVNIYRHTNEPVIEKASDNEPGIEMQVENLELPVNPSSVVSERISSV
Kind of data set: Human 5-HT2C receptor binding assay ([3H]mesulergine, CHO-K1 membranes). The conditions noted are these: displacement of [3H]mesulergine (1 nM), read-out: 5-HT2C pKi (converted). On the procedure: as §1
Membrane preparations from CHO-K1 cells expressing the cloned human 5-HT2C receptor were obtained (Euroscreen). The membranes were thawed rapidly and diluted in assay buffer containing Tris-HCl (50 mM, pH 7.7), ascorbic acid (0.1%) and pargyline (10 μM). The membranes were resuspended by homogenisation, prior to adding 6 μg of membranes to assay wells containing [^3H] mesulergine (1 nM), assay buffer (50 mM Tris at pH 7.7 and 0.1% ascorbic acid) containing pargyline (10 μM), and test compounds (1×10^−10 to 1×10^−4M). Non specific binding was determined in the presence of 100 μM mianserin. After 30 minutes incubation at 37° C., the assay mixture was filtered through a combination of GF-C and GF-B filters, pre-soaked in 1% bovine serum albumin, using a Brandel cell harvester, and were washed three times using ice cold Tris-HCl buffer (50 mM). Radioactivity retained on the filters was determined by liquid scintillation counting. For each test compound, the concentration that inhibited binding of [3H]mesulergine by 50% was determined using curve fitting software (Prism). Kd values (concentration of mesulergine required to occupy 50% of the receptor binding sites at equlibrium) determined from saturation binding studies were then used to calculate inhibition dissociation constants (Ki) using the following equation: […]

T2 sequence (P28223 whole entry): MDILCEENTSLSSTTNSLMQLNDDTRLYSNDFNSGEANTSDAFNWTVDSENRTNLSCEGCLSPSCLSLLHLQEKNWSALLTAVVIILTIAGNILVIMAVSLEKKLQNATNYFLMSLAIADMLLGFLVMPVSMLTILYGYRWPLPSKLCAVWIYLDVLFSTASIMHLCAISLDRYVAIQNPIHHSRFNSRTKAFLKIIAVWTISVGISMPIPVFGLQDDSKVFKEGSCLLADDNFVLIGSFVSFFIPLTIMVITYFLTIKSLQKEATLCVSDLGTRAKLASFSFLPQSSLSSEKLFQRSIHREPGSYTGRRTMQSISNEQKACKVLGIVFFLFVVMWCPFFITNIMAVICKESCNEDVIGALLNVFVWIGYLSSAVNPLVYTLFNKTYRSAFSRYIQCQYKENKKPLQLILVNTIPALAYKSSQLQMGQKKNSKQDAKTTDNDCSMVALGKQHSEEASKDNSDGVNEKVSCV
T1 sequence (P41595 whole entry): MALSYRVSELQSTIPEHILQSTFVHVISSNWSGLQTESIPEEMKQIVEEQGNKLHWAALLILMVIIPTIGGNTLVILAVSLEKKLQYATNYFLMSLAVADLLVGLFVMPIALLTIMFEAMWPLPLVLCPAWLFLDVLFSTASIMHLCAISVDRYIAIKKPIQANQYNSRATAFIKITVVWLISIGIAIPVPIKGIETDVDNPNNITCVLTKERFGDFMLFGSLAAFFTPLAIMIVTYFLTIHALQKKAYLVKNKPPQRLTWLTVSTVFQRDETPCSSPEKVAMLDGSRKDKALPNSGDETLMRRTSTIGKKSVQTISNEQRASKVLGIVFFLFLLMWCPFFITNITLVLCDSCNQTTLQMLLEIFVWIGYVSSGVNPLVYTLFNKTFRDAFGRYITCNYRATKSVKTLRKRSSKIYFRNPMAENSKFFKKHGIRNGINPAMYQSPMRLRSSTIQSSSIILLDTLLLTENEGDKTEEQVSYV

The melting point is the temperature, or range, at which the solid turns liquid. A word on the IC50: it is the midpoint of a concentration-inhibition curve. Turning to `CC(C)c1nc(N)oc1-c1cccc2ccccc12` [Compound 7, 2-amino-4-isopropyl-5-(naphth-1-yl)oxazole], the melting point was in the range of 127 to 129 °C. The compound further had a half-maximal inhibitory concentration (IC50) in data set [1] of under 10 nM. In addition, the Ki in data set [2] is over 100 nM. The Ki in data set [3] is over 1000 nM.

On to `COc1ccc2ccccc2c1-c1coc(N)n1` [Compound 17, 4-(2-methoxy-naphthalen-1-yl)-oxazol-2-ylamine], for which the IC50 in data set [1] was under 10 nM. Further, the Ki is over 1000 nM in data set [2] and over 100 nM in data set [3].

In data set [1], `Cc1ccc2ccccc2c1-c1coc(N)n1` [Compound 6, 2-amino-4-(2′-methylnaphth-1-yl)oxazole] had a half-maximal inhibitory concentration (IC50) of under 100 nM. In addition, the Ki in data set [2] and in data set [3] was over 1000 nM throughout.

For `CC(C)c1nc(N)oc1-c1ccc(F)c2ccccc12` [Compound 31, 2-amino-5-(4′-fluoronaphth-1-yl)-4-isopropyloxazole], the melting point came to 141 °C. In data set [1], this compound gave an IC50 of under 10 nM. Also, the Ki in data set [2] is over 1000 nM. Moreover, the Ki in data set [3] is over 1000 nM.

`Nc1nc(-c2cccc3ccccc23)co1` [Compound 1, 2-amino-4-(naphth-1-yl)oxazole] displayed a melting point of 155 to 162 °C. The same compound gave a half-inhibitory concentration (IC50) in data set [1] of under 100 nM. Moreover, the Ki in data set [2] was over 10000 nM. The Ki in data set [3] is over 1000 nM.
